Measurements published in US8362000B2, “Azetidinyl diamides as monoacylglycerol lipase inhibitors” (Janssen Pharmaceutica NV, priority 2009, dated 2013).
Changes are numbered by the printed parent chain. Like-named read-outs stand apart in the source and are kept apart here.

Assays:
mutant MGL = molecular target: T1, mutant MGL (Homo sapiens, UniProt Q99685, L169S/L176S); assay: MGL ThermoFluor assay - mutant; type: binding
T1 sequence (Q99685 1-303 L169S/L176S): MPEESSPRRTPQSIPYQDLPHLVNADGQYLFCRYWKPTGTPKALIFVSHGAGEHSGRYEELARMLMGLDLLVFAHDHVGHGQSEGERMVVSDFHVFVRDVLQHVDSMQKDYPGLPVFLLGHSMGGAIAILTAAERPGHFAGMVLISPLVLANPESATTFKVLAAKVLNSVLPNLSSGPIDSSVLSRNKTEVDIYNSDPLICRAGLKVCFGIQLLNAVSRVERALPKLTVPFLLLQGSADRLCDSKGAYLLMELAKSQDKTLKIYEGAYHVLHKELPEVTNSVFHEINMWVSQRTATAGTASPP

[1] = molecular target: T2, purified wild type MGL (wt-MGLL 6H-11-313) (Homo sapiens, UniProt Q99685)
T2 sequence (Q99685 1-303): T1 sequence (Q99685 1-303 L169S/L176S) with S169L, S176L

[2] = ThermoFluor, compound concentration measured by qNMR, read-out: MGL mutant ThermoFluor qKd (μM) (using qNMR conc.)
[3] = ThermoFluor concentration-response, read-out: MGL mutant ThermoFluor Kd
[4] = compound concentration measured by qNMR, read-out: MGL mutant ThermoFluor qKd (using qNMR conc.)
[5] = ThermoFluor, compound concentration measured by qNMR, read-out: MGL mutant ThermoFluor qKd (using qNMR conc.)
[6] = ThermoFluor thermal stability binding assay, read-out: MGL mutant ThermoFluor Kd

Compound | IC50 [1] [nM] | Kd (mutant MGL; [3]) [µM] | Kd (mutant MGL; [5]) [µM] | also measured
O=C(c1cc(Br)cs1)N1CC(N2CCN(C(=O)c3nccs3)CC2)C1 [Cpd 806] | 2050 |  |  | Kd (mutant MGL; [2]): 0.989 µM
O=C(c1ccc2c(c1)[S+]([O-])c1ccccc1O2)N1CC(N2CCN(C(=O)c3nccs3)CC2)C1 (centres unmarked) [Cpd 807] | 2080 |  |  | Kd (mutant MGL; [4]): 3.65 µM
O=C(c1cscn1)N1CCN(C2CN(C(=O)c3cc4ccc(C(F)(F)F)nc4o3)C2)CC1 [Cpd 808] | 2080 | 62.5 |  | 
O=C(c1cscn1)N1CC(N2CCN(C(=O)c3cc4cc(Cl)ccc4o3)CC2)C1 [Cpd 809] | 2100 | 0.769 |  | 
O=C(c1ccccn1)N1CCN(C2CN(C(=O)c3sc4cc(F)ccc4c3Cl)C2)CC1 [Cpd 810] | 2140 |  |  | Kd (mutant MGL; [6]): 0.29 µM
O=C(c1ccc(Oc2ccccc2Cl)nc1)N1CC(N2CCN(C(=O)c3cscn3)CC2)C1 [Cpd 811] | 2150 | 3.33 |  | 
O=C(c1ccc2c(ccn2CC(F)F)c1)N1CC(N2CCN(C(=O)c3cscn3)CC2)C1 [Cpd 813] | 2420 |  |  | Kd (mutant MGL; [4]): 0.499 µM
Cc1c(C(=O)N2CCN(C3CN(C(=O)c4nc(C(F)(F)F)cs4)C3)CC2)sc2cc(C(F)(F)F)ccc12 [Cpd 814] | 2430 | > 31 |  | 
O=C(c1ccc(N2CCOCC2)cc1)N1CC(N2CCN(C(=O)c3nccs3)CC2)C1 [Cpd 815] | 2490 | 0.25 |  | 
CCNC(=O)COc1ccc(C(=O)N2CC(N3CCN(C(=O)c4nccs4)CC3)C2)cc1 [Cpd 816] | 2640 |  | 2.84 | 
O=C(c1cc2cc(Cl)ccc2o1)N1CC(N2CCN(C(=O)c3nccs3)CC2)C1 [Cpd 818] | 2700 | 1 |  | 
O=C(c1ccc2[nH]ncc2c1)N1CC(N2CCN(C(=O)c3nccs3)CC2)C1 [Cpd 820, 5-({3-[4-(1,3-Thiazol-2-ylcarbonyl)piperazin-1-yl]azetidin-1-yl}carbonyl)-1H-indazole] | 2810 |  |  | Kd (mutant MGL; [2]): 0.996 µM
Cc1nc2cc(Cl)cc(Cl)c2cc1C(=O)N1CC(N2CCN(C(=O)c3nccs3)CC2)C1 [Cpd 823] | 2970 |  | 1.25 | 
Cc1c(C(=O)N2CC(N3CCN(C(=O)c4nccs4)CC3)C2)sc2nc3n(c(=O)c12)CCC3 [Cpd 824] | 3120 |  | 0.074 | 
Cc1c(C(=O)N2CC(N3CCN(C(=O)c4ccc[nH]4)CC3)C2)nc2ccc(Br)cn12 [Cpd 825] | 3150 |  | 4.86 | 
Cc1nc2cc(Cl)ccc2cc1C(=O)N1CC(N2CCN(C(=O)c3nccs3)CC2)C1 [Cpd 826] | 3290 |  | 0.663 | 
O=C(c1ccc2[nH]c(C3CCCCC3)nc2c1)N1CCN(C2CN(C(=O)c3nccs3)C2)CC1 [Cpd 827] | 3310 | 0.5 |  | 
O=C(c1cscn1)N1CCN(C2CN(C(=O)c3cc4ccc(C(F)(F)F)cc4[nH]3)C2)CC1 [Cpd 828] | 3730 | 2.63 |  | 
O=C(c1ccc2c(c1)CCN2)N1CC(N2CCN(C(=O)c3nccs3)CC2)C1 [Cpd 829, 5-({3-[4-(1,3-Thiazol-2-ylcarbonyl)piperazin-1-yl]azetidin-1-yl}carbonyl)-2,3-dihydro-1H-indole] | 3900 |  |  | Kd (mutant MGL; [6]): 0.5 µM
O=C(c1cscn1)N1CC(N2CCN(C(=O)c3cc4nc(C(F)(F)F)ccc4[nH]3)CC2)C1 [Cpd 830] | 3940 |  | 1.96 | 
CC(C)n1c(C(F)(F)F)nc2cc(C(=O)N3CC(N4CCN(C(=O)c5cscn5)CC4)C3)ccc21 [Cpd 831] | 4100 | 0.27 |  | 
Cc1nc2cc(C(=O)N3CC(N4CCN(C(=O)c5cscn5)CC4)C3)ccc2n1C1CCCCC1 [Cpd 832] | 4240 |  |  | Kd (mutant MGL; [6]): 0.059 µM
O=C(c1sc2cc(C(F)(F)F)ccc2c1Cl)N1CC(N2CCN(C(=O)c3cscn3)C(C(F)(F)F)C2)C1 (centres unmarked) [Cpd 833] | 4560 |  |  | Kd (mutant MGL; [2]): 3.33 µM
O=C(c1ccc2c(c1)ncn2C1CCC(F)(F)CC1)N1CC(N2CCN(C(=O)c3cscn3)CC2)C1 [Cpd 834] | 4600 |  |  | Kd (mutant MGL; [4]): 0.234 µM
Cc1nc2ccc(Cl)cc2cc1C(=O)N1CC(N2CCN(C(=O)c3nccs3)CC2)C1 [Cpd 835] | 4700 |  | 2.45 | 
CC(=O)NCCOc1ccc(C(=O)N2CC(N3CCN(C(=O)c4nccs4)CC3)C2)cc1 [Cpd 836] | 4760 |  | 2.25 | 
O=C(c1ccc(Oc2cc(C(F)(F)F)ccn2)cc1)N1CC(N2CCN(C(=O)C(F)(F)F)CC2)C1 [Cpd 837] | 5040 |  |  | Kd (mutant MGL; [4]): 20 µM
Cn1cc(C(=O)N2CC(N3CCN(C(=O)c4nccs4)CC3)C2)c2ccccc21 [Cpd 838] | 5110 | 0.978 |  | 
Cc1c(C(=O)N2CCN(C3CN(C(=O)c4ccc[nH]4)C3)CC2)n(C)c2ccc(Cl)cc12 [Cpd 839] | 5140 |  | 2.5 | 
COc1cccc2c(C)c(C(=O)N3CC(N4CCN(C(=O)c5cscn5)CC4)C3)[nH]c12 [Cpd 840] | 5160 | 2 |  | 

Further lines, with some results ahead:

IC50 [1] [nM] | Kd (mutant MGL; [3]) [µM] | Kd (mutant MGL; [5]) [µM] | Compound | also measured
933 |  |  | O=C(c1nccs1)N1CCN(C2CN(C(=O)c3sc4cc(C(F)(F)F)ccc4c3Cl)C2)C(C(F)(F)F)C1 (centres unmarked) [Cpd 778, 1-(1-{[3-Chloro-6-(trifluoromethyl)-1-benzothiophen-2-yl]carbonyl}azetidin-3-yl)-4-(1,3-thiazol-2-ylcarbonyl)-2-(trifluoromethyl)piperazine] | Kd (mutant MGL; [2]): 1.2 µM
944 | 0.1 |  | O=C(c1ccc2nc(C(F)(F)F)cc(Cl)c2c1)N1CC(N2CCN(C(=O)c3nccs3)CC2)C1 [Cpd 779] | 
978 |  |  | O=C(c1ccc2c(c1)ncn2CCC(F)(F)F)N1CC(N2CCN(C(=O)c3nccs3)CC2)C1 [Cpd 780] | Kd (mutant MGL; [4]): 0.128 µM
1070 |  | 0.463 | COCCOc1ccc(C(=O)N2CC(N3CCN(C(=O)c4nccs4)CC3)C2)cc1 [Cpd 782] | 
1090 |  | 0.732 | Cc1nc2cc(C(=O)N3CC(N4CCN(C(=O)c5nccs5)CC4)C3)ccc2s1 [Cpd 783] | 
1130 | 2.15 |  | O=C(c1ccc(Oc2cccc(F)n2)cc1)N1CC(N2CCN(C(=O)c3cscn3)CC2)C1 [Cpd 784] | 
1190 | 0.5 |  | O=C(c1cc2cc(Cl)ccc2o1)N1CCN(C2CN(C(=O)c3nccs3)C2)CC1 [Cpd 785] | 
1200 |  | 0.665 | Cc1cc(Br)ccc1C(=O)N1CC(N2CCN(C(=O)c3nccs3)CC2)C1 [Cpd 786] | 
1210 |  | 0.247 | O=C(c1cnc2cc(Cl)ccc2c1)N1CC(N2CCN(C(=O)c3nccs3)CC2)C1 [Cpd 787] | 
1230 |  | 1.98 | Cc1cc(C(=O)N2CC(N3CCN(C(=O)c4nccs4)CC3)C2)c(C)n1CC(F)(F)F [Cpd 788] | 
1370 |  |  | Cc1nc2cc(C(=O)N3CC(N4CCN(C(=O)c5nccs5)CC4)C3)ccc2n1CC(F)(F)F [Cpd 789] | Kd (mutant MGL; [4]): 0.043 µM
1420 |  |  | O=C(c1ccc(Sc2cccc(C(F)(F)F)c2)cc1)N1CC(N2CCN(C(=O)C(F)(F)F)CC2)C1 [Cpd 790] | Kd (mutant MGL; [4]): 2.49 µM
1450 |  | 0.402 | Cc1nc2c(C)ccc(Cl)c2cc1C(=O)N1CC(N2CCN(C(=O)c3nccs3)CC2)C1 [Cpd 791] | 
1460 |  | 0.973 | O=C(c1cc2ccc(Br)cc2[nH]1)N1CC(N2CCN(C(=O)c3nccs3)CC2)C1 [Cpd 792] | 
1460 | 0.198 |  | Cc1nc2cc(C(=O)N3CCN(C4CN(C(=O)c5nccs5)C4)CC3)ccc2n1C1CCCCC1 [Cpd 793] | 
1470 | 2.11 |  | Cc1c(C(=O)N2CC(N3CCN(C(=O)c4nccs4)CC3)C2)oc2c(F)cccc12 [Cpd 794] | 
1500 | 1.1 |  | O=C(c1cnc(NCc2ccccc2)s1)N1CC(N2CCN(C(=O)c3nccs3)CC2)C1 [Cpd 795] | 
1530 | 0.099 |  | Cc1c(C(=O)N2CC(N3CCN(C(=O)c4nccs4)CC3)C2)c2ccccc2n1C [Cpd 796] | 
1600 |  | 0.489 | O=C(c1cnc2ccc(Cl)cc2c1)N1CC(N2CCN(C(=O)c3nccs3)CC2)C1 [Cpd 797] | 
1630 |  |  | Cc1nc2cc(C(=O)N3CC(N4CCN(C(=O)c5nccs5)CC4)C3)ccc2n1C1CCC(F)(F)CC1 [Cpd 798] | Kd (mutant MGL; [4]): 0.004 µM
1670 | 0.661 |  | O=C(c1cc2ccc(C(F)(F)F)nc2[nH]1)N1CC(N2CCN(C(=O)c3nccs3)CC2)C1 [Cpd 799] | 
1700 | 1.1 |  | O=C(c1ccc2[nH]c(C3CCCCC3)nc2c1)N1CC(N2CCN(C(=O)c3cscn3)CC2)C1 [Cpd 800] | 
1710 |  |  | O=C(c1cscn1)N1CCN(C2CN(C(=O)c3sc4cc(C(F)(F)F)ccc4c3Cl)C2)C(C(F)(F)F)C1 (centres unmarked) [Cpd 801] | Kd (mutant MGL; [6]): 52.5 µM
1720 |  |  | O=C(c1ccc(Oc2ncc(C(F)(F)F)cc2Cl)cc1)N1CC(N2CCN(C(=O)C(F)(F)F)CC2)C1 [Cpd 802] | Kd (mutant MGL; [4]): 1.67 µM
1990 | 0.105 |  | O=C(c1nccs1)N1CC(N2CCN(C(=O)c3cc4cc(C(F)(F)F)ccc4s3)C(c3ccccc3)C2)C1 (centres unmarked) [Cpd 804] | 
